Measurements from patent US20220089598A1, “INHIBITORS OF HUMAN IMMUNODEFICIENCY VIRUS REPLICATION” (VIIV HEALTHCARE UK (No. 5) LIMITED, priority 2018, published 2022).

Legend:
[1] = Compound cytotoxicity, XTT-based colorimetric assay; type: cell-based; conditions: human; uninfected MT2 cells, day 4, XTT assay
Protocol: Compound cytotoxicity and the corresponding CC50 values were determined using the same protocol as described in the antiviral assay except that uninfected cells were used. Cytotoxicity was assessed on day 4 in uninfected MT2 cells by using a XTT (2,3-bis[2-Methoxy-4-nitro-5-sulfophenyl]-2H-tetrazolium-5-carboxyanilide inner salt)-based colorimetric assay (Sigma-Aldrich, St Louis, Mo.).

[2] = test system: recombinant NL4-3 virus (Renilla luciferase) in MT-2 cells; assay: HIV cell culture assay (antiviral activity, luciferase readout); type: cell-based; conditions: Renilla, NL43
Protocol: HIV cell culture assay—MT-2 cells, 293T cells and the proviral DNA clone of NL4-3 virus were obtained from the NIH AIDS Research and Reference Reagent Program. MT-2 cells were propagated in RPMI 1640 media supplemented with 10% heat inactivated fetal bovine serum (FBS), 100 μg/ml penicillin G and up to 100 units/mL streptomycin. The 293T cells were propagated in DMEM media supplemented with 10% heat inactivated FBS, 100 μg/mL penicillin G and 100 μg/mL streptomycin. A recombinant NL4-3 proviral clone, in which a section of the nef gene was replaced with the Renilla luciferase gene, was used to make the reference virus used in these studies. The recombinant virus was prepared through transfection of the recombinant NL4-3 proviral clone into 293T cells using Transit-293 Transfection Reagent from Mirus Bio LLC (Madison, Wis.). Supernatent was harvested after 2-3 days and the amount of virus present was titered in MT-2 cells using luciferase enzyme activity as a marker by measuring luciferase enzyme activity. Luciferase was quantitated using the EnduRen Live Cell Substrate from Promega (Madison, Wis.). Antiviral activities of compounds toward the recombinant virus were quantified by measuring luciferase activity in MT-2 cells infected for 4-5 days with the recombinant virus in the presence of serial dilutions of the compound.
The 50% effective concentration (EC50) was calculated by using the exponential form of the median effect equation where (Fa)=1/[1+(ED50/drug conc.)m] (Johnson V A, Byington R T. Infectivity Assay. In Techniques in HIV Research. ed. Aldovini A, Walker B D. 71-76. New York: Stockton Press. 1990).

SMILES | CC50 at 4 day [1] | EC50 [2]
Cn1nc(NS(C)(=O)=O)c2c(Cl)ccc(-n3c([C@H](Cc4cc(F)cc(F)c4)NC(=O)Cn4nc(C(F)F)c5c4C(F)(F)[C@@H]4C[C@H]54)nc4nc(-c5ccccc5F)ccc4c3=O)c21 (atropisomer, axis not shown; (P)) [Example 1, N—((S)-1-((3P)-3-(4-chloro-1-methyl-3-(methylsulfonamido)-1H-indazol-7-yl)-7-(2-fluorophenyl)-4-oxo-3,4-dihydropyrido[2,3-d]pyrimidin-2-yl)-2-(3,5-difluorophenyl)ethyl)-2-((3bS,4aR)-3-(difluoromethyl)-5,5-difluoro-3b,4,4a,5-tetrahydro-1H-cyclopropa[3,4]cyclopenta[1,2-c]pyrazol-1-yl)acetamide] | > 1000 nM | 0.06 nM
COc1nc2nc([C@H](Cc3cc(F)cc(F)c3)NC(=O)Cn3nc(C(F)F)c4c3C(F)(F)[C@@H]3C[C@H]43)n(-c3ccc(Cl)c4c(NS(C)(=O)=O)nn(C)c34)c(=O)c2cc1-c1ccccc1F (atropisomer, axis not shown; (P)) [Example 2, N—((S)-1-((3P)-3-(4-chloro-1-methyl-3-(methylsulfonamido)-1H-indazol-7-yl)-6-(2-fluorophenyl)-7-methoxy-4-oxo-3,4-dihydropyrido[2,3-d]pyrimidin-2-yl)-2-(3,5-difluorophenyl)ethyl)-2-((3bS,4aR)-3-(difluoromethyl)-5,5-difluoro-3b,4,4a,5-tetrahydro-1H-cyclopropa[3,4]cyclopenta[1,2-c]pyrazol-1-yl)acetamide] | > 1000 nM | 0.25 nM
Cn1nc(NS(C)(=O)=O)c2c(Cl)ccc(-n3c([C@H](Cc4cc(F)cc(F)c4)NC(=O)Cn4nc(C(F)F)c5c4C(F)(F)[C@@H]4C[C@H]54)nc4nc(-c5c(F)cccc5F)ccc4c3=O)c21 (atropisomer, axis not shown; (P)) [Example 3, N—((S)-1-((3P)-3-(4-chloro-1-methyl-3-(methylsulfonamido)-1H-indazol-7-yl)-7-(2,6-difluorophenyl)-4-oxo-3,4-dihydropyrido[2,3-d]pyrimidin-2-yl)-2-(3,5-difluorophenyl)ethyl)-2-((3bS,4aR)-3-(difluoromethyl)-5,5-difluoro-3b,4,4a,5-tetrahydro-1H-cyclopropa[3,4]cyclopenta[1,2-c]pyrazol-1-yl)acetamide] | > 100 nM | 0.11 nM
Cn1nc(NS(C)(=O)=O)c2c(Cl)ccc(-n3c([C@H](Cc4cc(F)cc(F)c4)NC(=O)Cn4nc(C(F)F)c5c4C(F)(F)[C@@H]4C[C@H]54)nc4nc(-c5cccc(F)c5F)ccc4c3=O)c21 (atropisomer, axis not shown; (P)) [Example 4, N—((S)-1-((3P)-3-(4-chloro-1-methyl-3-(methylsulfonamido)-1H-indazol-7-yl)-7-(2,3-difluorophenyl)-4-oxo-3,4-dihydropyrido[2,3-d]pyrimidin-2-yl)-2-(3,5-difluorophenyl)ethyl)-2-((3bS,4aR)-3-(difluoromethyl)-5,5-difluoro-3b,4,4a,5-tetrahydro-1H-cyclopropa[3,4]cyclopenta[1,2-c]pyrazol-1-yl)acetamide] | > 100 nM | 0.092 nM
Cn1nc(NS(C)(=O)=O)c2c(Cl)ccc(-n3c([C@H](Cc4cc(F)cc(F)c4)NC(=O)Cn4nc(C(F)F)c5c4C(F)(F)[C@@H]4C[C@H]54)nc4nc(-c5ccc(F)c(CO)c5)ccc4c3=O)c21 (atropisomer, axis not shown; (P)) [Example 5, N—((S)-1-((3P)-3-(4-chloro-1-methyl-3-(methylsulfonamido)-1H-indazol-7-yl)-7-(4-fluoro-3-(hydroxymethyl)phenyl)-4-oxo-3,4-dihydropyrido[2,3-d]pyrimidin-2-yl)-2-(3,5-difluorophenyl)ethyl)-2-((3bS,4aR)-3-(difluoromethyl)-5,5-difluoro-3b,4,4a,5-tetrahydro-1H-cyclopropa[3,4]cyclopenta[1,2-c]pyrazol-1-yl)acetamide] | > 500 nM | 0.16 nM
Cn1nc(NS(C)(=O)=O)c2c(Cl)ccc(-n3c([C@H](Cc4cc(F)cc(F)c4)NC(=O)Cn4nc(C(F)F)c5c4C(F)(F)[C@@H]4C[C@H]54)nc4nc(-c5cc(Cl)c(F)cc5F)ccc4c3=O)c21 (atropisomer, axis not shown; (P)) [Example 6, N—((S)-1-((3P)-3-(4-chloro-1-methyl-3-(methylsulfonamido)-1H-indazol-7-yl)-7-(5-chloro-2,4-difluorophenyl)-4-oxo-3,4-dihydropyrido[2,3-d]pyrimidin-2-yl)-2-(3,5-difluorophenyl)ethyl)-2-((3bS,4aR)-3-(difluoromethyl)-5,5-difluoro-3b,4,4a,5-tetrahydro-1H-cyclopropa[3,4]cyclopenta[1,2-c]pyrazol-1-yl)acetamide] | > 100 nM | 0.192 nM
O=C(Cn1nc(C(F)(F)F)c2c1C(F)(F)[C@@H]1C[C@H]21)N[C@@H](Cc1cc(F)cc(F)c1)c1nc2nc(-c3ccccc3F)ccc2c(=O)n1-c1ccc(Cl)c2c(NS(=O)(=O)C3CC3)nn(CC(F)F)c12 (atropisomer, axis not shown; (P)) [Example 7, N—((S)-1-((3P)-3-(4-chloro-3-(cyclopropanesulfonamido)-1-(2,2-difluoroethyl)-1H-indazol-7-yl)-7-(2-fluorophenyl)-4-oxo-3,4-dihydropyrido[2,3-d]pyrimidin-2-yl)-2-(3,5-difluorophenyl)ethyl)-2-((3bS,4aR)-5,5-difluoro-3-(trifluoromethyl)-3b,4,4a,5-tetrahydro-1H-cyclopropa[3,4]cyclopenta[1,2-c]pyrazol-1-yl)acetamide] | > 100 nM | 0.056 nM
Cn1nc(NS(C)(=O)=O)c2c(Cl)ccc(-n3c([C@H](Cc4cc(F)cc(F)c4)NC(=O)Cn4nc(C(F)F)c5c4C(F)(F)[C@@H]4C[C@H]54)nc4nc(-c5ccc(Cl)cc5F)ccc4c3=O)c21 (atropisomer, axis not shown; (P)) [Example 8, N—((S)-1-((3P)-3-(4-chloro-1-methyl-3-(methylsulfonamido)-1H-indazol-7-yl)-7-(4-chloro-2-fluorophenyl)-4-oxo-3,4-dihydropyrido[2,3-d]pyrimidin-2-yl)-2-(3,5-difluorophenyl)ethyl)-2-((3bS,4aR)-3-(difluoromethyl)-5,5-difluoro-3b,4,4a,5-tetrahydro-1H-cyclopropa[3,4]cyclopenta[1,2-c]pyrazol-1-yl)acetamide] | > 20000 nM | 0.067 nM
Cn1nc(NS(C)(=O)=O)c2c(Cl)ccc(-n3c([C@H](Cc4cc(F)cc(F)c4)NC(=O)Cn4nc(C(F)F)c5c4C(F)(F)[C@@H]4C[C@H]54)nc4nc(-c5cc(F)ccc5F)ccc4c3=O)c21 (atropisomer, axis not shown; (P)) [Example 9, N—((S)-1-((3P)-3-(4-chloro-1-methyl-3-(methylsulfonamido)-1H-indazol-7-yl)-7-(2,5-difluorophenyl)-4-oxo-3,4-dihydropyrido[2,3-d]pyrimidin-2-yl)-2-(3,5-difluorophenyl)ethyl)-2-((3bS,4aR)-3-(difluoromethyl)-5,5-difluoro-3b,4,4a,5-tetrahydro-1H-cyclopropa[3,4]cyclopenta[1,2-c]pyrazol-1-yl)acetamide] | > 500 nM | 0.12 nM
CS(=O)(=O)Nc1nn(CC(F)F)c2c(-n3c([C@H](Cc4cc(F)cc(F)c4)NC(=O)Cn4nc(C(F)F)c5c4C(F)(F)[C@@H]4C[C@H]54)nc4nc(-c5ccccc5F)ccc4c3=O)ccc(Cl)c12 (atropisomer, axis not shown; (P)) [Example 10, N—((S)-1-((3P)-3-(4-chloro-1-(2,2-difluoroethyl)-3-(methylsulfonamido)-1H-indazol-7-yl)-7-(2-fluorophenyl)-4-oxo-3,4-dihydropyrido[2,3-d]pyrimidin-2-yl)-2-(3,5-difluorophenyl)ethyl)-2-((3bS,4aR)-3-(difluoromethyl)-5,5-difluoro-3b,4,4a,5-tetrahydro-1H-cyclopropa[3,4]cyclopenta[1,2-c]pyrazol-1-yl)acetamide] | > 100 nM | 0.097 nM
CS(=O)(=O)Nc1nn(CC(F)(F)F)c2c(-n3c([C@H](Cc4cc(F)cc(F)c4)NC(=O)Cn4nc(C(F)(F)F)c5c4C(F)(F)[C@@H]4C[C@H]54)nc4nc(-c5ccccc5F)ccc4c3=O)ccc(Cl)c12 (atropisomer, axis not shown; (P)) [Example 11, N—((S)-1-((3P)-3-(4-chloro-3-(methylsulfonamido)-1-(2,2,2-trifluoroethyl)-1H-indazol-7-yl)-7-(2-fluorophenyl)-4-oxo-3,4-dihydropyrido[2,3-d]pyrimidin-2-yl)-2-(3,5-difluorophenyl)ethyl)-2-((3bS,4aR)-5,5-difluoro-3-(trifluoromethyl)-3b,4,4a,5-tetrahydro-1H-cyclopropa[3,4]cyclopenta[1,2-c]pyrazol-1-yl)acetamide] | > 100 nM | 0.15 nM
